Reference: the supplement of paper PMC10307832

Legend:
Experiment in all cases: relative viability (nuclei count vs DMSO), 5 days (fraction); higher = more cells survive
[1] = compound: CC1=CC(=C(N1C2=CC=C(C=C2)Cl)C)C(=O)CN3CCCCC3 [IU1-47] + C[C@@H](Oc1cc(-c2cnn(C3CCNCC3)c2)cnc1N)c1c(Cl)ccc(F)c1Cl [Crizotinib] (partner 1 µM)
Outline: (§1)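 Nuclei were stained with Hoechst during a one-step fixation (final 0.05% Triton X-100, 1% formaldehyde, 1 ug/ml Hoechst) carried out 5 days after dosing, then counted on 4× images. The cells, lung cancer lines in 1536-well plates, had been dosed by pin tool the day after seeding with one drug alone or a fixed anchor-drug dose plus five library-drug doses (not always all listed) in √10 steps. Relative viability is the nuclei count in treated wells divided by that in vehicle wells, and each value is the median of duplicate plates.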

[2] = compound: Cc1nc(C(=O)NCC(=O)O)c(O)c2ccc(Oc3ccccc3)cc12 [FG-4592] + CC(=O)c1c(C)c2cnc(Nc3ccc(N4CCNCC4)cn3)nc2n(C2CCCC2)c1=O [Palbociclib] (partner 0.5 µM)
Outline: as §1

[3] = compound: CC1=CC(=C(N1C2=CC=C(C=C2)Cl)C)C(=O)CN3CCCCC3 [IU1-47] + C[C@]1(O)C[C@@H](c2nc(-c3ccc4ccc(-c5ccccc5)nc4c3)c3c(N)nccn32)C1 [Linsitinib] (partner 1 µM)
Outline: as §1

[4] = compound: Cc1nc(C(=O)NCC(=O)O)c(O)c2ccc(Oc3ccccc3)cc12 [FG-4592] + Nc1ncn([C@H]2C[C@H](O)[C@@H](CO)O2)c(=O)n1 [Decitabine] (partner 2 µM)
Outline: as §1

Cell Line	relative viability ([1]; first compound 0.08 µM)	relative viability ([1]; first compound 0.253 µM)	relative viability ([1]; first compound 0.8 µM)	relative viability ([1]; first compound 2.53 µM)	relative viability ([1]; first compound 8 µM)	relative viability ([2]; first compound 0.08 µM)	relative viability ([2]; first compound 0.253 µM)	relative viability ([2]; first compound 0.8 µM)	relative viability ([2]; first compound 2.53 µM)	relative viability ([2]; first compound 8 µM)	relative viability ([3]; first compound 0.08 µM)	relative viability ([3]; first compound 0.253 µM)	relative viability ([3]; first compound 0.8 µM)	relative viability ([3]; first compound 2.53 µM)	relative viability ([3]; first compound 8 µM)	relative viability ([4]; first compound 0.08 µM)	relative viability ([4]; first compound 0.253 µM)	relative viability ([4]; first compound 0.8 µM)	relative viability ([4]; first compound 2.53 µM)	relative viability ([4]; first compound 8 µM)
LOU-NH91	0.739	0.808	0.733	0.708	0.769	0.534	0.514	0.54	0.517	0.544	1.07	1.06	0.939	0.907	0.868	0.861	0.802	0.814	0.802	0.812
NCI-H522						0.97	0.884		1.1	0.811						0.706	0.514		0.65	0.74
NCI-H596	1.01	1.07	1.04	0.95	0.943						1.17	1.11	1.02	0.984	0.934	0.92	1.01		0.897	0.8
NCI-H1299	0.965	0.93	0.977	0.972	0.834						0.943	0.951	1.05	1.01	0.975					
NCI-H1395						0.585	0.615	0.597	0.688	0.485	1.04	1.07	0.978		0.987	0.766	0.677	0.75	0.686	0.614
NCI-H1563	0.877	0.791	0.882	0.86	0.802						1.22	1.05	1.19	1.07	1.14					
NCI-H1648						0.248	0.29		0.282	0.262						0.549	0.484		0.416	0.635
NCI-H1650	0.978	0.969	0.802	1.16	0.857	0.259	0.292	0.304	0.346	0.332						0.504	0.378	0.358	0.421	0.331
NCI-H1703	0.524	0.917	0.426	1.15	1.11						0.516	0.707	0.416	0.671	0.886					
NCI-H1793							0.256		0.39	0.293	0.822	0.868	0.976		0.689		0.476		0.55	0.398
NCI-H2170	1.42	1.44	1.26	1.11	1.25	0.423	0.351	0.345	0.381	0.282						0.445	0.479	0.447	0.506	0.356
NCI-H2228	0.524	0.455	0.449	0.555	0.448	0.678	0.762	0.603	0.89	0.421	0.586	0.555	0.752	0.521	0.414					
NCI-H2342						0.519	0.503	0.47	0.538	0.489						0.841	0.793	0.662	0.772	0.608
SW 900							0.525		0.568	0.5							0.47		0.465	0.349
